In US7659244B2, “Rapamycin peptides conjugates: synthesis and uses thereof” (Quest Pharmatech, Inc., priority 2004, dated 2010):
Read-outs that look alike come from different tables or passages of the source.

Legend:
[1] = read-out: Inhibition of H^3 Thymidine uptake (IC50 in nM), A431 cells, 96 hours incubation
[2] = read-out: Inhibition of H^3 Thymidine uptake (IC50 in nM), Lncap cells, 96 hours incubation
[3] = read-out: Inhibition of H^3 Thymidine uptake (IC50 in nM), MCF-7 cells, 96 hours incubation
[4] = read-out: Inhibition of H^3 Thymidine uptake (IC50 in nM), OVCAR-3 cells, 96 hours incubation
[5] = read-out: Inhibition of H^3 Thymidine uptake (IC50 in nM), SKMEL-2 cells, 96 hours incubation
[6] = read-out: Inhibition of H^3 Thymidine uptake (IC50 in nM), SK-N-SH cells, 96 hours incubation
[7] = read-out: Inhibition of H^3 Thymidine uptake (IC50 in nM), SKOV-3 cells, 96 hours incubation
[8] = read-out: Inhibition of H^3 Thymidine uptake (IC50 in nM), D341 cells, 96 hours incubation
[9] = read-out: Inhibition of H^3 Thymidine uptake (IC50 in nM), LS174T cells, 96 hours incubation

Experimental for A431: (§1) Quantification of cell proliferation and cell viability was determined by measuring the amount of radioactive [^3H-methyl]-thymidine incorporated into DNA.
(§2) Cell culture: For each cell line, culture was carried according to the ATCC Product Information Sheet provided. Cell lines were always freshly thawed prior to each experiment. For all experiments exponentially growing cells were harvested and centrifuged at 1100 rpm, the spent medium was aspirated and cell pellets were resuspended in fresh complete medium. Viable cells were enumerated by trypan blue exclusion using a hemacytometer.
(§3) Cells were then seeded in 96 well tissue culture plates in a total volume of 100 μL/well. A preliminary experiment should be performed to determine the most appropriate cell density for each individual cell line. Cells were allowed to attach and acclimate overnight.
(§4) Addition of test compounds: Each test compound was dissolved in DMSO at a final concentration of 2 mM. Each stock compound was then diluted in complete medium (1:100) to obtain a 20 μM working solution. The working solution was used for further serial dilutions to obtain concentrations of 200 nM, 20 nM, 2 nM, 0.2 nM and 0.02 nM. 100 μL of each dilution was added to the 100 μL cell cultures (3 replicates),. to give final test concentrations of 100 nM, 10 nM, 1 nM, 0.1 nM and 0.01 nM. Using this system of dilutions, the maximum concentration of DMSO to which the cells were exposed was 0.01% v/v. Therefore, 0.01% DMSO was added to control cells to which no test compounds was added. On each plate two positive controls were included: Adriamycin Hydrochloride and Rapamycin. For each positive control 3 concentrations were chosen in a range that achieved an LC50, this range is cell line specific and must be predetermined in a pilot experiment. Plates were incubated for 96 hours prior to harvesting. [^3H-methyl]-thymidine incorporation: After 80 hours incubation, 10 μL (0.5 μCi) of [^3H-methyl]-thymidine diluted in 1× HBSS was added and plates were incubated overnight.
(§5) Growth medium was removed from each well and 100 uL of Trypsin-EDTA was added. The plate was incubated at 37° C. until cells were trypsinized (check under microscope). The detached cells were harvested using a semiautomatic cell harvester. Filters were dried prior to addition to scintillation vials. two mL of scintillation fluid was automatically dispensed into each vial and counting was effected on program 1 (^3H, 1 min, DPM).
(§6) The average and standard error from the DPM counts of replicate samples were calculated.
Experimental for D341: as §1, §2, §3, §4, §5, §6
Experimental for LS174T: as §1, §2, §3, §4, §5, §6
Experimental for Lncap: as §1, §2, §3, §4, §5, §6
Experimental for MCF-7: as §1, §2, §3, §4, §5, §6
Experimental for OVCAR-3: as §1, §2, §3, §4, §5, §6
Experimental for SK-N-SH: as §1, §2, §3, §4, §5, §6
Experimental for SKMEL-2: as §1, §2, §3, §4, §5, §6
Experimental for SKOV-3: as §1, §2, §3, §4, §5, §6

SMILES | IC50 (A431; 96 h) | IC50 (Lncap; 96 h) | IC50 (LS174T; 96 h) | IC50 (MCF-7; 96 h) | IC50 (OVCAR-3; 96 h) | IC50 (SKMEL-2; 96 h) | IC50 (SK-N-SH; 96 h) | IC50 (SKOV-3; 96 h) | IC50 (D341; 96 h) | IC50 (A431; [1]) | IC50 (Lncap; [2]) | IC50 (MCF-7; [3]) | IC50 (OVCAR-3; [4]) | IC50 (SKMEL-2; [5]) | IC50 (SK-N-SH; [6]) | IC50 (SKOV-3; [7]) | IC50 (D341; [8]) | IC50 (LS174T; [9])
CC[C@H](C)[C@H](NC(=O)O[C@@H]1CC[C@@H](C[C@@H](C)[C@@H]2CC(=O)[C@H](C)/C=C(\C)[C@@H](O)[C@@H](OC)C(=O)[C@H](C)C[C@H](C)/C=C/C=C/C=C(\C)[C@@H](OC)C[C@@H]3CC[C@@H](C)[C@@](O)(O3)C(=O)C(=O)N3CCCC[C@H]3C(=O)O2)C[C@H]1OC)C(=O)N[C@@H](CO)Cc1ccccc1 [Compound 7a, Rapamycin-42-O-ester-(NH-L-Ile-D-Phe-CH2OH)] | 608 nM | 154 nM | 626 nM | 29.6 nM | 416 nM | 78.1 nM | 86.9 nM | 80 nM | 138 nM | – | – | – | – | – | – | – | – | –
CC[C@H](C)[C@H](NC(=O)O[C@@H]1CC[C@@H](C[C@@H](C)[C@@H]2CC(=O)[C@H](C)/C=C(\C)[C@@H](O)[C@@H](OC)C(=O)[C@H](C)C[C@H](C)/C=C/C=C/C=C(\C)[C@@H](OC)C[C@@H]3CC[C@@H](C)[C@@](O)(O3)C(=O)C(=O)N3CCCC[C@H]3C(=O)O2)C[C@H]1OC)C(=O)N[C@H](CO)Cc1ccccc1 [Compound 7b, Rapamycin-42-O-ester-(NH-L-Ile-S-Phe-CH2OH)] | 1840 nM | 309 nM | 1480 nM | 53.3 nM | 424 nM | 326 nM | 144 nM | 136 nM | 182 nM | – | – | – | – | – | – | – | – | –
CC[C@H](C)[C@H](NC(=O)[C@H](CC(C)C)NC(=O)O[C@@H]1CC[C@@H](C[C@@H](C)[C@@H]2CC(=O)[C@H](C)/C=C(\C)[C@@H](O)[C@@H](OC)C(=O)[C@H](C)C[C@H](C)/C=C/C=C/C=C(\C)[C@@H](OC)C[C@@H]3CC[C@@H](C)[C@@](O)(O3)C(=O)C(=O)N3CCCC[C@H]3C(=O)O2)C[C@H]1OC)C(=O)N[C@@H](CO)Cc1ccccc1 [Compound 7c, Rapamycin-42-O-ester-(NH-L-Leu-L-Ile-D-Phe-CH2OH)] | 286 nM | 212 nM | 1700 nM | 32.3 nM | 260 nM | 87.4 nM | 111 nM | 72.1 nM | 114 nM | – | – | – | – | – | – | – | – | –
CC[C@H](C)[C@H](NC(=O)[C@@H](CC(C)C)NC(=O)O[C@@H]1CC[C@@H](C[C@@H](C)[C@@H]2CC(=O)[C@H](C)/C=C(\C)[C@@H](O)[C@@H](OC)C(=O)[C@H](C)C[C@H](C)/C=C/C=C/C=C(\C)[C@@H](OC)C[C@@H]3CC[C@@H](C)[C@@](O)(O3)C(=O)C(=O)N3CCCC[C@H]3C(=O)O2)C[C@H]1OC)C(=O)N[C@H](CO)Cc1ccccc1 [Compound 7d, Rapamycin-42-O-ester-(NH-D-Leu-L-Ile-S-Phe-CH2OH)] | 12700 nM | 198 nM | – | 52.2 nM | 343 nM | 358 nM | 137 nM | 94.3 nM | 140 nM | – | – | – | – | – | – | – | – | –
CC[C@H](C)[C@H](NC(=O)[C@H](CC(C)C)NC(=O)[C@H](C)NC(=O)O[C@@H]1CC[C@@H](C[C@@H](C)[C@@H]2CC(=O)[C@H](C)/C=C(\C)[C@@H](O)[C@@H](OC)C(=O)[C@H](C)C[C@H](C)/C=C/C=C/C=C(\C)[C@@H](OC)C[C@@H]3CC[C@@H](C)[C@@](O)(O3)C(=O)C(=O)N3CCCC[C@H]3C(=O)O2)C[C@H]1OC)C(=O)N[C@@H](CO)Cc1ccccc1 [Compound 7e, Rapamycin-42-O-ester-(NH-L-Ala-L-Leu-L-Ile-D-Phe-CH2OH)] | 490 nM | 191 nM | 146 nM | 66.9 nM | 503 nM | 155 nM | 90 nM | 76.6 nM | 82.8 nM | – | – | – | – | – | – | – | – | –
CC[C@H](C)[C@H](NC(=O)[C@H](CC(C)C)NC(=O)[C@H](C)NC(=O)[C@@H](Cc1cn(C(c2ccccc2)(c2ccccc2)c2ccccc2)cn1)NC(=O)O[C@@H]1CC[C@@H](C[C@@H](C)[C@@H]2CC(=O)[C@H](C)/C=C(\C)[C@@H](O)[C@@H](OC)C(=O)[C@H](C)C[C@H](C)/C=C/C=C/C=C(\C)[C@@H](OC)C[C@@H]3CC[C@@H](C)[C@@](O)(O3)C(=O)C(=O)N3CCCC[C@H]3C(=O)O2)C[C@H]1OC)C(=O)N[C@@H](CO)Cc1ccccc1 [Compound 7g] | – | – | 3680 nM | 2440 nM | – | 946 nM | – | 595 nM | 937 nM | – | – | – | – | – | – | – | – | –
CC[C@H](C)[C@H](NC(=O)[C@H](CC(C)C)NC(=O)[C@H](C)NC(=O)[C@H](Cc1cn(C(c2ccccc2)(c2ccccc2)c2ccccc2)cn1)NC(=O)O[C@@H]1CC[C@@H](C[C@@H](C)[C@@H]2CC(=O)[C@H](C)/C=C(\C)[C@@H](O)[C@@H](OC)C(=O)[C@H](C)C[C@H](C)/C=C/C=C/C=C(\C)[C@@H](OC)C[C@@H]3CC[C@@H](C)[C@@](O)(O3)C(=O)C(=O)N3CCCC[C@H]3C(=O)O2)C[C@H]1OC)C(=O)N[C@@H](CO)Cc1ccccc1 [Compound 7h] | 2370 nM | 374 nM | 777 nM | 85.5 nM | 375 nM | 416 nM | 223 nM | 155 nM | 405 nM | – | – | – | – | – | – | – | – | –
CO[C@H]1C[C@@H]2CC[C@@H](C)[C@@](O)(O2)C(=O)C(=O)N2CCCC[C@H]2C(=O)O[C@H]([C@H](C)C[C@@H]2CC[C@@H](OC(=O)N[C@H](CO)Cc3ccccc3)[C@H](OC)C2)CC(=O)[C@H](C)/C=C(\C)[C@@H](O)[C@@H](OC)C(=O)[C@H](C)C[C@H](C)/C=C/C=C/C=C/1C [Compound 7j, Rapamycin-42-O-ester-(S) (−)-2-amino-3-phenyl-1-propanol] | – | – | – | – | – | – | – | – | – | 506 nM | 166 nM | 15.3 nM | 264 nM | 157 nM | 80 nM | 55.9 nM | 106 nM | –
CO[C@H]1C[C@@H]2CC[C@@H](C)[C@@](O)(O2)C(=O)C(=O)N2CCCC[C@H]2C(=O)O[C@H]([C@H](C)C[C@@H]2CC[C@@H](OC(=O)N[C@@H](CO)[C@@H](O)c3ccccc3)[C@H](OC)C2)CC(=O)[C@H](C)/C=C(\C)[C@@H](O)[C@@H](OC)C(=O)[C@H](C)C[C@H](C)/C=C/C=C/C=C/1C [Compound 7l, Rapamycin-42-O-ester-(1S,2S)-(+)-2-amino-1-phenyl-1,3-propandiol] | – | – | – | – | – | – | – | – | – | 217 nM | 64.6 nM | 6.35 nM | 113 nM | 29.1 nM | 15.6 nM | 17.1 nM | 27.6 nM | 23500 nM
CCC(C)C(CO)NC(=O)O[C@@H]1CC[C@@H](C[C@@H](C)[C@@H]2CC(=O)[C@H](C)/C=C(\C)[C@@H](O)[C@@H](OC)C(=O)[C@H](C)C[C@H](C)/C=C/C=C/C=C(\C)[C@@H](OC)C[C@@H]3CC[C@@H](C)[C@@](O)(O3)C(=O)C(=O)N3CCCC[C@H]3C(=O)O2)C[C@H]1OC (stereo partly shown) [Compound 7m, Rapamycin-42-O-ester-2-amino-3-methyl-1-pentanol] | – | – | – | – | – | – | – | – | – | 626 nM | 136 nM | 31.3 nM | 488 nM | 147 nM | 56.7 nM | 69.1 nM | 86.8 nM | 664 nM
COC1CC2CCC(C)C(O)(O2)C(=O)C(=O)N2CCCCC2C(=O)OC(C(C)CC2CCC(OC(=O)NC(CO)CC(C)C)C(OC)C2)CC(=O)C(C)C=C(C)C(O)C(OC)C(=O)C(C)CC(C)C=CC=CC=C1C [Compound 7s, Rapamycin-42-O-ester-(R)-(−)-2-amino-4-methyl pentanol] | – | – | – | – | – | – | – | – | – | 625 nM | 189 nM | 15.6 nM | 355 nM | 154 nM | 97.3 nM | 93.6 nM | 103 nM | –
CO[C@H]1C[C@@H]2CC[C@@H](C)[C@@](O)(O2)C(=O)C(=O)N2CCCC[C@H]2C(=O)O[C@H]([C@H](C)C[C@@H]2CC[C@@H](OC(=O)CCC(=O)N[C@H](CO)Cc3ccccc3)[C@H](OC)C2)CC(=O)[C@H](C)/C=C(\C)[C@@H](O)[C@@H](OC)C(=O)[C@H](C)C[C@H](C)/C=C/C=C/C=C/1C [Compound 7v, Rapamycin-42-O-(3-carboxypropanoyl) ester-(S) (−)-2-amino-3-phenyl-1-propanol] | – | – | – | – | – | – | – | – | – | 1030 nM | 48.3 nM | 5.52 nM | 95.5 nM | 81 nM | 18.8 nM | 10.4 nM | 15 nM | –
COC(=O)C(NC(=O)O[C@@H]1CC[C@@H](C[C@@H](C)[C@@H]2CC(=O)[C@H](C)/C=C(\C)[C@@H](O)[C@@H](OC)C(=O)[C@H](C)C[C@H](C)/C=C/C=C/C=C(\C)[C@@H](OC)C[C@@H]3CC[C@@H](C)[C@@](O)(O3)C(=O)C(=O)N3CCCC[C@H]3C(=O)O2)C[C@H]1OC)C(=O)OC [Compound 7w] | – | – | – | – | – | – | – | – | – | – | 83.5 nM | 103 nM | – | 378 nM | 164 nM | 26.5 nM | – | 859 nM
CO[C@H]1C[C@@H]2CC[C@@H](C)[C@@](O)(O2)C(=O)C(=O)N2CCCC[C@H]2C(=O)O[C@H]([C@H](C)C[C@@H]2CC[C@@H](OC(=O)NC3C(=O)OC(C)(C)OC3=O)[C@H](OC)C2)CC(=O)[C@H](C)/C=C(\C)[C@@H](O)[C@@H](OC)C(=O)[C@H](C)C[C@H](C)/C=C/C=C/C=C/1C [Compound 7x] | – | – | – | – | – | – | – | – | – | – | 3.32 nM | 7.09 nM | – | 113 nM | 11.3 nM | 3.4 nM | – | 433 nM
